Experimental data as given in ChEMBL document CHEMBL1155486, “From 6-aminoquinolone antibacterials to 6-amino-7-thiopyranopyridinylquinolone ethyl esters as inhibitors of Staphylococcus aureus multidrug efflux pumps” (2010).
Values after ≈ are worked out from the molar mass of the structure shown.

Columns and labels:
Staphylococcus aureus [1] = assay: Antibacterial activity against wild-type norA expressing Staphylococcus aureus SA-1199 by microdilution technique; assay type: functional
Staphylococcus aureus [2] = assay: Antibacterial activity against Staphylococcus aureus SA-1199B norA++ and A116E GrlA mutation by microdilution technique; assay type: functional
Staphylococcus aureus [3] = assay: Antibacterial activity against Staphylococcus aureus SA-K1902 bearing norA- deficient mutation by microdilution technique; assay type: functional
Staphylococcus aureus [4] = assay: Antibacterial activity against Staphylococcus aureus ATCC 25923 by microdilution technique; assay type: functional
Staphylococcus aureus [5] = assay: Antibacterial activity against methicillin and ciprofloxacin-resistant Staphylococcus aureus 25A by microdilution technique; assay type: functional
Escherichia coli = assay: Antibacterial activity against Escherichia coli ATCC 25922 by microdilution technique; assay type: functional
Staphylococcus aureus [6] = assay: Antibacterial activity against Staphylococcus aureus SA-K1904 bearing norA++ efficient mutation by microdilution technique; assay type: functional
Staphylococcus aureus [7] = assay: Antibacterial activity against Staphylococcus aureus SA-1199B by EtBr efflux assay; assay type: functional
[8] = target: T1, Quinolone resistance protein NorA (Staphylococcus aureus) (UniProt P0A0J7); assay: Inhibition of NorA in Staphylococcus aureus SA-1199B assessed as reduction in ethidium bromide efflux at 50 uM by fluorimetry; parameters: scale not given: the % may be the effect or the level left
T1 sequence (whole entry): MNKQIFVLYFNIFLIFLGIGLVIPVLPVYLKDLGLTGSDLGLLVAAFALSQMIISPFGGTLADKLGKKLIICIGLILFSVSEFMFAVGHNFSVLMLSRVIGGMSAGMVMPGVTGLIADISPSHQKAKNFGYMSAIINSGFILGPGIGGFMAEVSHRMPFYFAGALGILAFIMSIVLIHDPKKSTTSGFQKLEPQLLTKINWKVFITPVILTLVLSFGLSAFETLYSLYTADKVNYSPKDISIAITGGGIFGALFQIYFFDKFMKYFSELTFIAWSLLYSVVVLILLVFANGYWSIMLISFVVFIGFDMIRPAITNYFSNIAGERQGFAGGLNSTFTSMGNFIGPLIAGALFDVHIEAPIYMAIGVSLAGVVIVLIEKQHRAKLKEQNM

Staphylococcus aureus [9] = assay: Antibacterial activity against Staphylococcus aureus K1134 bearing wild-type GyrA and S80Y mutant GrlA by microdilution technique; assay type: functional
Staphylococcus aureus [10] = assay: Antibacterial activity against Staphylococcus aureus K1035 bearing wild-type GyrA and S80F mutant GrlA by microdilution technique; assay type: functional
Staphylococcus aureus [11] = assay: Antibacterial activity against Staphylococcus aureus K1640 bearing S84L mutant GyrA and S80Y mutant GrlA by microdilution technique; assay type: functional
Staphylococcus aureus [12] = assay: Antibacterial activity against Staphylococcus aureus K1628 bearing S84L mutant GyrA and S80F mutant GrlA by microdilution technique; assay type: functional
Staphylococcus aureus [13] = assay: Antibacterial activity against Staphylococcus aureus K1305 bearing wild-type GyrA and E84K mutant GrlA by microdilution technique; assay type: functional

Structure (SMILES) | MIC (Staphylococcus aureus [1]) [µg/mL] | MIC (Staphylococcus aureus [2]) [µg/mL] | MIC (Staphylococcus aureus [3]) [µg/mL] | MIC (Staphylococcus aureus [4]) [µg/mL] | MIC (Staphylococcus aureus [5]) [µg/mL] | MIC (Escherichia coli) [µg/mL] | MIC (Staphylococcus aureus [6]) [µg/mL] | MIC (Staphylococcus aureus [7]) [µg/mL] | Activity [8] [%] | MIC (Staphylococcus aureus [9]) [µg/mL] | MIC (Staphylococcus aureus [10]) [µg/mL] | MIC (Staphylococcus aureus [11]) [µg/mL] | MIC (Staphylococcus aureus [12]) [µg/mL] | MIC (Staphylococcus aureus [13]) [µg/mL] | MIC50 (Staphylococcus aureus [7]) [µg/mL]
CO/N=C1\CCSC2=C1CN(c1cc3c(cc1F)c(=O)c(C(=O)O)cn3C1CC1)CC2 | 1.25 (≈ 2.82 µM) | 2.5 (≈ 5.64 µM) | 1.25 (≈ 2.82 µM) | 0.25 (≈ 0.564 µM) | 1 (≈ 2.25 µM) | 32 (≈ 72.2 µM) | 1.25 (≈ 2.82 µM) |  |  |  |  |  |  |  | 
CCOC(=O)c1cn(C2CC2)c2cc(N3CCC4=C(C3)C(=O)CCS4)c(N)cc2c1=O |  |  |  |  |  |  |  | > 100 | 35.7 |  |  |  |  |  | 
Cc1c(N2CCc3ccccc3C2)c(N)cc2c(=O)c(C(=O)O)cn(C3CC3)c12 | ≤ 0.02 | ≤ 0.02 | ≤ 0.02 | ≤ 0.12 | ≤ 0.12 | ≤ 0.12 | ≤ 0.02 |  |  | ≤ 0.02 | ≤ 0.02 | 0.63 (≈ 1.62 µM) | 1.25 (≈ 3.21 µM) | ≤ 0.02 | 
CC1CSC2=C(CN(c3cc4c(cc3N)c(=O)c(C(=O)O)cn4C3CC3)CC2)/C1=N/O (configuration not stated) | 1.56 (≈ 3.54 µM) | 6.25 (≈ 14.2 µM) | 1.56 (≈ 3.54 µM) | 6.25 (≈ 14.2 µM) | 32 (≈ 72.6 µM) | 32 (≈ 72.6 µM) | 3.13 (≈ 7.11 µM) |  |  |  |  |  |  |  | 
COc1c(N2C[C@@H]3CCCN[C@@H]3C2)c(F)cc2c(=O)c(C(=O)O)cn(C3CC3)c12 [MOXIFLOXACIN] | 0.08 (≈ 0.199 µM) | 0.25 (≈ 0.623 µM) | 0.08 (≈ 0.199 µM) | < 0.08 | 2 (≈ 4.98 µM) | < 0.08 | 0.08 (≈ 0.199 µM) |  |  | 0.31 (≈ 0.772 µM) | 0.31 (≈ 0.772 µM) | 2.5 (≈ 6.23 µM) | 5 (≈ 12.5 µM) | 0.31 (≈ 0.772 µM) | 
O=C(O)c1cn(C2CC2)c2cc(N3CCC4=C(C3)/C(=N/O)CCS4)c(F)cc2c1=O | 0.63 (≈ 1.47 µM) | 2.5 (≈ 5.82 µM) | 0.63 (≈ 1.47 µM) | 2 (≈ 4.66 µM) | 2 (≈ 4.66 µM) | 1 (≈ 2.33 µM) | 0.63 (≈ 1.47 µM) |  |  |  |  |  |  |  | 
CCOC(=O)c1cn(C2CC2)c2cc(N3CCC4=C(C3)C(=O)C(C)CS4)c(N)cc2c1=O (configuration not stated) |  |  |  |  |  |  |  | > 100 | 63.5 |  |  |  |  |  | 
Nc1cc2c(=O)c(C(=O)O)cn(C3CC3)c2cc1N1CCC2=C(C1)C(=O)CCS2 | 1.56 (≈ 3.79 µM) | 25 (≈ 60.8 µM) | 3.13 (≈ 7.61 µM) | 6.25 (≈ 15.2 µM) | > 128 | 128 (≈ 311 µM) | 6.25 (≈ 15.2 µM) |  |  |  |  |  |  |  | 
CO/N=C1\CCSC2=C1CN(c1c(N)cc3c(=O)c(C(=O)O)cn(C4CC4)c3c1C)CC2 | 0.31 (≈ 0.682 µM) | 0.31 (≈ 0.682 µM) | 0.31 (≈ 0.682 µM) | 0.16 (≈ 0.352 µM) | 32 (≈ 70.4 µM) | 16 (≈ 35.2 µM) | 0.31 (≈ 0.682 µM) |  |  | 2.5 (≈ 5.5 µM) | 1.25 (≈ 2.75 µM) | > 10 | > 10 | 1.25 (≈ 2.75 µM) | 
CO/N=C1/C2=C(CCN(c3c(N)cc4c(=O)c(C(=O)O)cn(C5CC5)c4c3C)C2)SCC1C (configuration not stated) | 3.13 (≈ 6.68 µM) | 3.13 (≈ 6.68 µM) | 6.25 (≈ 13.3 µM) | 16 (≈ 34.1 µM) | 8 (≈ 17.1 µM) | 8 (≈ 17.1 µM) | 6.25 (≈ 13.3 µM) |  |  |  |  |  |  |  | 
CO/N=C1/C2=C(CCN(c3cc4c(cc3N)c(=O)c(C(=O)O)cn4C3CC3)C2)SCC1C (configuration not stated) | 6.25 (≈ 13.7 µM) | 6.25 (≈ 13.7 µM) | 3.13 (≈ 6.89 µM) | 4 (≈ 8.8 µM) | 4 (≈ 8.8 µM) | 128 (≈ 282 µM) | 3.13 (≈ 6.89 µM) |  |  |  |  |  |  |  | 
CCOC(=O)c1cn(C2CC2)c2cc(N3CCNCC3)c(F)cc2c1=O [CIPROFLOXACIN ETHYL ESTER] |  |  |  |  |  |  |  |  | 20.8 |  |  |  |  |  | > 100
CC1CSC2=C(CN(c3cc4c(cc3N)c(=O)c(C(=O)O)cn4C3CC3)CC2)C1=O (configuration not stated) | 3.13 (≈ 7.36 µM) | 12.5 (≈ 29.4 µM) | 1.56 (≈ 3.67 µM) | 6.25 (≈ 14.7 µM) | 16 (≈ 37.6 µM) | 64 (≈ 150 µM) | 6.25 (≈ 14.7 µM) |  |  |  |  |  |  |  | 
Cc1c(N2CCC3=C(C2)/C(=N/O)C(C)CS3)c(N)cc2c(=O)c(C(=O)O)cn(C3CC3)c12 (configuration not stated) | 0.31 (≈ 0.682 µM) | 1.25 (≈ 2.75 µM) | 0.31 (≈ 0.682 µM) | 0.16 (≈ 0.352 µM) | 8 (≈ 17.6 µM) | 0.5 (≈ 1.1 µM) | 0.31 (≈ 0.682 µM) |  |  |  |  |  |  |  | 
Cc1c(N2CCC3=C(C2)C(=O)CCS3)c(N)cc2c(=O)c(C(=O)O)cn(C3CC3)c12 | 0.31 (≈ 0.729 µM) | 0.63 (≈ 1.48 µM) | 0.31 (≈ 0.729 µM) | 0.25 (≈ 0.588 µM) | 4 (≈ 9.4 µM) | 1 (≈ 2.35 µM) | 0.31 (≈ 0.729 µM) |  |  | 1.25 (≈ 2.94 µM) | 1.25 (≈ 2.94 µM) | > 10 | > 10 | 1.25 (≈ 2.94 µM) | 
CC1CSC2=C(CN(c3cc4c(cc3F)c(=O)c(C(=O)O)cn4C3CC3)CC2)C1=O (configuration not stated) | 0.08 (≈ 0.187 µM) | 0.16 (≈ 0.373 µM) | 0.16 (≈ 0.373 µM) | 0.31 (≈ 0.723 µM) | 32 (≈ 74.7 µM) | 8 (≈ 18.7 µM) | 0.16 (≈ 0.373 µM) |  |  | 1.25 (≈ 2.92 µM) | 1.25 (≈ 2.92 µM) | > 10 | > 10 | 1.25 (≈ 2.92 µM) | 
